# Source: patent US10168342B2, “Lipid probes and uses thereof” (THE SCRIPPS RESEARCH INSTITUTE, priority 2015, dated 2019)
# Where two headings read alike, the source gives them in different places.
# How the values were obtained:
# [1] = target: AEA-DA lipid probe targets in Neuro2a cells (Mus musculus, UniProt P18242)
# [2] = target: T1, AEA-DA lipid probe targets in Neuro2a cells (Mus musculus, UniProt Q8VCB1); settings: for SILAC ratio, TMEM48 (Q8VCB1): Neuro2a cells, AEA-DA probe
# T1 sequence (Q8VCB1 1-673): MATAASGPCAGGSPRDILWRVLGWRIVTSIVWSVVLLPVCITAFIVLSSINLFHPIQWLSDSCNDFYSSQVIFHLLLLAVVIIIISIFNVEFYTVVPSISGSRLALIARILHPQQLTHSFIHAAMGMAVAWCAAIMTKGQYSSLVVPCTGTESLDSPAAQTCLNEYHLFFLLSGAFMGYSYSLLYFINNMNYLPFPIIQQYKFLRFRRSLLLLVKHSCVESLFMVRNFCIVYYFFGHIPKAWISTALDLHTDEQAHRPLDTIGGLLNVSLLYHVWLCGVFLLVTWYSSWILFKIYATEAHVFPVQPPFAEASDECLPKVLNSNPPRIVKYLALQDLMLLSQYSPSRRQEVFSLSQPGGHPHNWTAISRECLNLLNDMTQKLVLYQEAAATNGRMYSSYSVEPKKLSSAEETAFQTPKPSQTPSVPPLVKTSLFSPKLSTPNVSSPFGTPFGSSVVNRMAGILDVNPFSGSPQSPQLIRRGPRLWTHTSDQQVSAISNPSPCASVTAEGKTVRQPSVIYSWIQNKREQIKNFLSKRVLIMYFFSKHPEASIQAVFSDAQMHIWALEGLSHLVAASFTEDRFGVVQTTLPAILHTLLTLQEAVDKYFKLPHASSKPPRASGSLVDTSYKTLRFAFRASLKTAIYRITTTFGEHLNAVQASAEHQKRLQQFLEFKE
# [3] = target: T2, AEA-DA lipid probe targets in Neuro2a cells (Mus musculus, UniProt Q8VI75)
# T2 sequence (Q8VI75 1-1082): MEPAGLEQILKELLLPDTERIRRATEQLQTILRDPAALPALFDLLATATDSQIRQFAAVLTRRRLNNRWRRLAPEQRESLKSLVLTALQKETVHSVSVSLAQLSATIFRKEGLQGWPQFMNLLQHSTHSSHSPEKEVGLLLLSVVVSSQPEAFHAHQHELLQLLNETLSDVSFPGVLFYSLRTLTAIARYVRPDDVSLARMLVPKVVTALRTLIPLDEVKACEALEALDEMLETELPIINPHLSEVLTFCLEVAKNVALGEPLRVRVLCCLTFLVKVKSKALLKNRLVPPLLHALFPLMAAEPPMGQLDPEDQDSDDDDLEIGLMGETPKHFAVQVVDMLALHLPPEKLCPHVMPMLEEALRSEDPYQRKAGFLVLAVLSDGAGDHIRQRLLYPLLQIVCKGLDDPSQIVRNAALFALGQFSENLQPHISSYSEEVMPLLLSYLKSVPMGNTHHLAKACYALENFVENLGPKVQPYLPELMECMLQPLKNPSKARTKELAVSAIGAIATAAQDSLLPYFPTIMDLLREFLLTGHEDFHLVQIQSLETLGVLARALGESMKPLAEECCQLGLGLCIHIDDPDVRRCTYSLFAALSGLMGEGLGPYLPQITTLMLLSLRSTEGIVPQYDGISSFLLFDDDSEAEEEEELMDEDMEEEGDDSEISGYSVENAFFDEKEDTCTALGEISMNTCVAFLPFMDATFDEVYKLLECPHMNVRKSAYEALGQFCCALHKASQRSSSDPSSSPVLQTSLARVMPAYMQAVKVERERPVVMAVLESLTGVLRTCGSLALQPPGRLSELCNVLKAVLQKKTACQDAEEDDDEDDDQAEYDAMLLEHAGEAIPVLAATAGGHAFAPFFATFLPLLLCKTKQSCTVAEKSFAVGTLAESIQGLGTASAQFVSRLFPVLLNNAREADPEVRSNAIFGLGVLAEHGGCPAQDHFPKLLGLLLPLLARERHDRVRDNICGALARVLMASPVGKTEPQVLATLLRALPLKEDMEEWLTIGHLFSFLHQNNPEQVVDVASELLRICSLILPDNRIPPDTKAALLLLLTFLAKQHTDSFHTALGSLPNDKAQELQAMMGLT
# [4] = target: T3, AEA-DA lipid probe targets in Neuro2a cells (Mus musculus, UniProt Q922Q8)
# T3 sequence (Q922Q8 1-307): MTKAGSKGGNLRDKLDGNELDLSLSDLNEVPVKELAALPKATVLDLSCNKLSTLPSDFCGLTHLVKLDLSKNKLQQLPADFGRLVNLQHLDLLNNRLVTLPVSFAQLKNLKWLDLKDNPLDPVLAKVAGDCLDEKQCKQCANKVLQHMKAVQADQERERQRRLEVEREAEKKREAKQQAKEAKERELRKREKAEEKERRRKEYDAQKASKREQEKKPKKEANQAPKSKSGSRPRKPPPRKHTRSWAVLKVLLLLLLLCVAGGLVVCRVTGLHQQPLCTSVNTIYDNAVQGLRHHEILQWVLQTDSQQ
# [5] = target: T4, AEA-DA lipid probe targets in Neuro2a cells (Mus musculus, UniProt Q9D024)
# T4 sequence (Q9D024 21-483): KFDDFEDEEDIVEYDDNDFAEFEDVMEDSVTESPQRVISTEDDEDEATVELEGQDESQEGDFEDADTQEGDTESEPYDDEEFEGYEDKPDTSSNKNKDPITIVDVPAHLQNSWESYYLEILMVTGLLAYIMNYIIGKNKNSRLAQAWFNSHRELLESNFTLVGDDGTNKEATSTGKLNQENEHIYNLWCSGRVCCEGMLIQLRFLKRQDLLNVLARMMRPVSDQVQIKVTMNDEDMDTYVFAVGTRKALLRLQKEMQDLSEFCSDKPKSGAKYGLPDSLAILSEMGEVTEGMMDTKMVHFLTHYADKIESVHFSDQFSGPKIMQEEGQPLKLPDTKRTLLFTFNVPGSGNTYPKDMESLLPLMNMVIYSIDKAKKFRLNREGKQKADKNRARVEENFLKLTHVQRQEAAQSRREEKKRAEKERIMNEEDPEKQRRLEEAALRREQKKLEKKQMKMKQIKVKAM
# [6] = system: AEA-DA lipid probe targets in Neuro2a cells; settings: for SILAC ratio, GM20425 (E9Q035): Neuro2a cells, AEA-DA probe
# [7] = competitor 25 μM, first Tmpo line (r51)
# [8] = competitor 25 μM, second Tmpo line (r55)
# AEA-DA lipid probe targets in Neuro2a cells (Mus musculus, UniProt P18242), sequence (P18242 65-410): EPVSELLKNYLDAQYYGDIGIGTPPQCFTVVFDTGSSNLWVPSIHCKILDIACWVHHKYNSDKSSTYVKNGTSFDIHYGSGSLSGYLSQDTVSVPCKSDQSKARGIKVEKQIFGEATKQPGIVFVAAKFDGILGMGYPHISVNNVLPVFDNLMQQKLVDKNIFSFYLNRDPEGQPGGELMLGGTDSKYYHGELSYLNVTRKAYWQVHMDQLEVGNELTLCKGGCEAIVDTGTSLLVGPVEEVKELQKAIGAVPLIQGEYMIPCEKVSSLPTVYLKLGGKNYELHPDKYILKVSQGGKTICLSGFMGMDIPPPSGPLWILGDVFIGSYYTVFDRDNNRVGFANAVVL
compound,measurement,setting,value
"CN1CCN(C(=O)c2c(-c3ccccc3)c3cc([N+](=O)[O-])ccc3n2C)CC1 [KML110, (1-Methyl-5-nitro-3-phenyl-1H-indol-2-yl)(4-methylpiperazin-1-yl)methanone]","SILAC ratio, Ctsd",[1]; competitor 25 μM,1.4
same,"SILAC ratio, Tmem48",[2]; competitor 25 μM,1.6
same,SILAC ratio Ipo4,[3]; competitor 25 μM,1.4
same,SILAC ratio Lrrc59,[4]; competitor 25 μM,1.3
same,"SILAC ratio, Ccdc47",[5]; competitor 25 μM,1.7
same,SILAC ratio Akr1c12,[6]; competitor 25 μM,1.2
same,SILAC ratio H2-K1,[6]; competitor 25 μM,1.6
same,SILAC ratio Nup205,[6]; competitor 25 μM,1.2
same,SILAC ratio Uncharacterized,[6]; competitor 25 μM,1.1
same,"SILAC ratio, Gm20425",[6]; competitor 25 μM,1.5
same,"SILAC ratio, Gm20671",[6]; competitor 25 μM,1.4
same,"SILAC ratio, Tmpo",[6]; [7],1.5
same,"SILAC ratio, Tmpo",[6]; [8],1.5
"CN1CCN(C(=O)c2[nH]c3ccc([N+](=O)[O-])cc3c2-c2ccccc2)CC1 [MJN228, (4-Methylpiperazin-1-yl)(5-nitro-3-phenyl-1H-indol-2-yl)methanone]","SILAC ratio, Ctsd",[1]; competitor 10 μM,1.2
same,"SILAC ratio, Ctsd",[1]; competitor 25 μM,1.2
same,"SILAC ratio, Ctsd",[1]; competitor 50 μM,1.2
same,"SILAC ratio, Ctsd",[1]; competitor 100 μM,1.1
same,"SILAC ratio, TMEM48 (Q8VCB1)",[2]; competitor 25 μM,1.5
same,"SILAC ratio, Tmem48",[2]; competitor 10 μM,1.3
same,"SILAC ratio, Tmem48",[2]; competitor 25 μM,1.5
same,"SILAC ratio, Tmem48",[2]; competitor 50 μM,1.9
same,"SILAC ratio, Tmem48",[2]; competitor 100 μM,2.8
same,SILAC ratio Ipo4,[3]; competitor 10 μM,1.0
same,SILAC ratio Ipo4,[3]; competitor 25 μM,1.3
same,SILAC ratio Ipo4,[3]; competitor 50 μM,1.0
same,SILAC ratio Ipo4,[3]; competitor 100 μM,1.6
same,SILAC ratio Lrrc59,[4]; competitor 10 μM,1.3
same,SILAC ratio Lrrc59,[4]; competitor 25 μM,1.5
same,SILAC ratio Lrrc59,[4]; competitor 50 μM,1.5
same,SILAC ratio Lrrc59,[4]; competitor 100 μM,2.0
same,"SILAC ratio, Ccdc47",[5]; competitor 10 μM,1.4
same,"SILAC ratio, Ccdc47",[5]; competitor 25 μM,1.8
same,"SILAC ratio, Ccdc47",[5]; competitor 50 μM,1.9
same,"SILAC ratio, Ccdc47",[5]; competitor 100 μM,3.1
same,"SILAC ratio, GM20425 (E9Q035)",[6]; competitor 25 μM,1.7
same,SILAC ratio Nup205,[6]; competitor 10 μM,1.0
same,SILAC ratio Uncharacterized,[6]; competitor 10 μM,1.1
same,"SILAC ratio, Akr1b10",[6]; competitor 10 μM,2.1
same,"SILAC ratio, Gm20425",[6]; competitor 10 μM,1.3
same,"SILAC ratio, Tmpo","[6]; competitor 10 μM, first Tmpo line (r51)",1.1
same,"SILAC ratio, Tmpo","[6]; competitor 10 μM, second Tmpo line (r55)",1.1
same,SILAC ratio H2-K1,[6]; competitor 25 μM,1.1
same,SILAC ratio Nup205,[6]; competitor 25 μM,1.2
same,SILAC ratio Uncharacterized,[6]; competitor 25 μM,1.6
same,"SILAC ratio, Gm20425",[6]; competitor 25 μM,1.7
same,"SILAC ratio, Gm20671",[6]; competitor 25 μM,1.4
same,"SILAC ratio, Tmpo",[6]; [7],1.4
same,"SILAC ratio, Tmpo",[6]; [8],1.4
same,SILAC ratio Nup205,[6]; competitor 50 μM,1.1
same,"SILAC ratio, Akr1b10",[6]; competitor 50 μM,2.6
same,"SILAC ratio, Gm20425",[6]; competitor 50 μM,1.7
same,"SILAC ratio, Tmpo","[6]; competitor 50 μM, first Tmpo line (r51)",1.4
same,"SILAC ratio, Tmpo","[6]; competitor 50 μM, second Tmpo line (r55)",1.3
same,SILAC ratio Nup205,[6]; competitor 100 μM,1.2
same,SILAC ratio Uncharacterized,[6]; competitor 100 μM,3.0
same,"SILAC ratio, Akr1b10",[6]; competitor 100 μM,3.2
same,"SILAC ratio, Gm20425",[6]; competitor 100 μM,2.9
same,"SILAC ratio, Tmpo","[6]; competitor 100 μM, first Tmpo line (r51)",2.1
same,"SILAC ratio, Tmpo","[6]; competitor 100 μM, second Tmpo line (r55)",2.0
"C=CCN(C)CCCCCCOc1ccc(C(=O)c2ccc(Br)cc2)c(F)c1 [Ro 48-8071, reference compound]","SILAC ratio, Ctsd",[1]; competitor 25 μM,0.5
same,"SILAC ratio, TMEM48 (Q8VCB1)",[2]; competitor 25 μM,1.1
same,"SILAC ratio, Tmem48",[2]; competitor 25 μM,1.1
same,SILAC ratio Ipo4,[3]; competitor 25 μM,1.0
same,SILAC ratio Lrrc59,[4]; competitor 25 μM,1.2
same,"SILAC ratio, Ccdc47",[5]; competitor 25 μM,1.4
same,"SILAC ratio, GM20425 (E9Q035)",[6]; competitor 25 μM,1.2
same,SILAC ratio Akr1c12,[6]; competitor 25 μM,0.9
same,SILAC ratio H2-K1,[6]; competitor 25 μM,0.9
same,SILAC ratio Nup205,[6]; competitor 25 μM,0.9
same,SILAC ratio Uncharacterized,[6]; competitor 25 μM,1.0
same,"SILAC ratio, Gm20425",[6]; competitor 25 μM,1.2
same,"SILAC ratio, Gm20671",[6]; competitor 25 μM,1.3
same,"SILAC ratio, Tmpo",[6]; [7],1.2
same,"SILAC ratio, Tmpo",[6]; [8],1.2
